Source: PubChem BioAssay (NCI)
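In this assay, cells in 96-well plates receive the compound at five concentrations for 48 hours. Endpoints are linearly interpolated between the surrounding concentrations. At the GI50, growth is halved. The concentration for full growth arrest is given as TGI.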

system: MCF7 breast; assay: NCI tumour cell line growth inhibition, 48 h

Compound	TGI [µM]	GI50 [µM]
COc1ccc(N2C(=O)CC(=O)N(NC(=O)C(C)Oc3ccccc3C)C2=S)cc1 (configuration not stated)	> 100	
O=C1OC(C2Cc3ccc4ccccc4c3C2=O)c2ccccc21 (configuration not stated)	> 100	
C/C(=N\N=C1/C(=O)OC(c2ccccc2)=C1C(=O)c1ccccc1)c1ccc([N+](=O)[O-])cc1	> 100	
O=S(=O)(O)C(CO)c1ccccc1 (configuration not stated) (tested in a mixture with another compound)	> 100	
O=C1c2ccccc2C(=O)N1n1c(Cc2ccc([N+](=O)[O-])cc2)n[nH]c1=O	> 100	
Cc1nn(-c2ccccc2)c2c1C(c1cc3ccccc3nc1Cl)NC(=O)N2 (configuration not stated)	73.9	
COc1ccc(C2OC(c3ccncc3)=NN2C)cc1F (configuration not stated)	> 100	
Cc1cc(/N=C/c2ccc(N(C)C)cc2)n(-c2ccccc2)n1	> 100	
O=C(/C=C/c1ccccc1)Oc1ccc(C(=O)/C=C/c2ccccc2)cc1	> 31.6	
COC(=O)C(Cc1ccc2c(c1)CCC2)Cc1ccc2c(c1)CCC2	> 100	
C/C(C[n+]1ccccc1)=N\N=C(N)N	> 100	
NS(=O)(=O)c1ccc(NC(=S)/N=C/C2=C(O)c3ccccc3C2=O)cc1	> 100	
O=C1NC2c3c(I)sc(I)c3C(O)C2O1 (configuration not stated)	> 100	
Cc1nc(C)c(C(=O)NNC(=O)C[N+](C)(C)C)cc1C(=O)NNC(=O)C[N+](C)(C)C	> 100	
NCCCN1c2ccccc2Sc2ccc(Cl)cc21	3.21	
CCOC(=O)c1cccc(N=Nc2nc[nH]c2/C=C/C(=O)OC)c1	> 100	
O=C(O)CN1CCN2CCCCCN(CC1)CCN(CC(=O)O)CC2	> 100	

Compound	TGI [µM]	GI50 [µM]
Cc1cccc(C)c1NC(=O)C(Cc1c[nH]c2ccccc12)NC(=O)OCc1ccccc1 (configuration not stated)	95.8	
S=C1NC2=C(CSC/C2=C\c2cccc(Br)c2)C(c2cccc(Br)c2)N1 (configuration not stated)	> 100	
Clc1ccc(-c2nnc3sc4nc5ccccc5c-4nn23)c(Cl)c1	> 100	
C=C(C(=O)OCC)C(=O)OCC	> 100	
N#CC(C#N)=C1SC(=Nc2ccccc2)C(=Nc2ccccc2)N1c1ccccc1	> 58.7	
C[n+]1c(/C=C/c2c(O)ccc3ccccc23)ccc2ccccc21	7.89	1.12
O=C1c2cc(-c3ccccc3)cnc2S(=O)(=O)N1c1ccc(Br)cc1	> 100	
CC(=NNC(=S)Nc1ccccc1)c1cccc(C(C)=NNC(=S)Nc2ccccc2)n1	> 30.7	
CC(C)c1cc2c(c(O)c1O)[C@@]1(C(=O)O)CCCC(C)(C)[C@@H]1CC2	45.2	
COC1=CC(=O)c2c(c(-c3nc(C)cs3)cn2C)C1=O	10.9	
CCCNc1ncnc2c1ncn2C	> 100	
CCOS(C)(=O)=O	> 100	
C=CCc1cc(-c2nc(=S)[nH][nH]2)ccc1N=NNc1ccc(C(=O)O)cc1	> 100	
CC(C)SC(=S)Sc1c(Cl)c(Cl)nc(Cl)c1Cl	15.7	
O=C(O)CN1CCNCCN(CC(=O)O)CCN(CC(=O)O)CCNCC1	> 100	
CCCCCCCCCCCC[S+](C)C	24.5	
CC(C)(C)[Si](C)(C)OCC1OC(n2ccc(=O)[nH]c2=O)C(O[Si](C)(C)C(C)(C)C)/C1=C/C#N (configuration not stated)	> 61.9	

system: UACC-257 melanoma; assay: NCI tumour cell line growth inhibition, 48 h

Compound	TGI [µM]	GI50 [µM]
COc1ccc(N2C(=O)CC(=O)N(NC(=O)C(C)Oc3ccccc3C)C2=S)cc1 (configuration not stated)	> 100	
O=C1OC(C2Cc3ccc4ccccc4c3C2=O)c2ccccc21 (configuration not stated)	> 100	
C/C(=N\N=C1/C(=O)OC(c2ccccc2)=C1C(=O)c1ccccc1)c1ccc([N+](=O)[O-])cc1	> 100	
O=S(=O)(O)C(CO)c1ccccc1 (configuration not stated) (tested in a mixture with another compound)	> 100	
O=C1c2ccccc2C(=O)N1n1c(Cc2ccc([N+](=O)[O-])cc2)n[nH]c1=O	> 100	
Cc1nn(-c2ccccc2)c2c1C(c1cc3ccccc3nc1Cl)NC(=O)N2 (configuration not stated)	85.9	
COc1ccc(C2OC(c3ccncc3)=NN2C)cc1F (configuration not stated)	> 100	
Cc1cc(/N=C/c2ccc(N(C)C)cc2)n(-c2ccccc2)n1	> 100	
O=C(/C=C/c1ccccc1)Oc1ccc(C(=O)/C=C/c2ccccc2)cc1	20.3	
COC(=O)C(Cc1ccc2c(c1)CCC2)Cc1ccc2c(c1)CCC2	> 100	
C/C(C[n+]1ccccc1)=N\N=C(N)N	> 100	
NS(=O)(=O)c1ccc(NC(=S)/N=C/C2=C(O)c3ccccc3C2=O)cc1	> 100	
O=C1NC2c3c(I)sc(I)c3C(O)C2O1 (configuration not stated)	> 100	
Cc1nc(C)c(C(=O)NNC(=O)C[N+](C)(C)C)cc1C(=O)NNC(=O)C[N+](C)(C)C	> 100	
NCCCN1c2ccccc2Sc2ccc(Cl)cc21	> 10	
CCOC(=O)c1cccc(N=Nc2nc[nH]c2/C=C/C(=O)OC)c1	60.4	
O=C(O)CN1CCN2CCCCCN(CC1)CCN(CC(=O)O)CC2	> 100	

Compound	TGI [µM]	GI50 [µM]
Cc1cccc(C)c1NC(=O)C(Cc1c[nH]c2ccccc12)NC(=O)OCc1ccccc1 (configuration not stated)	34	
S=C1NC2=C(CSC/C2=C\c2cccc(Br)c2)C(c2cccc(Br)c2)N1 (configuration not stated)	> 100	
Clc1ccc(-c2nnc3sc4nc5ccccc5c-4nn23)c(Cl)c1	> 100	
C=C(C(=O)OCC)C(=O)OCC	> 100	
N#CC(C#N)=C1SC(=Nc2ccccc2)C(=Nc2ccccc2)N1c1ccccc1	30	
C[n+]1c(/C=C/c2c(O)ccc3ccccc23)ccc2ccccc21	14.9	7.17
O=C1c2cc(-c3ccccc3)cnc2S(=O)(=O)N1c1ccc(Br)cc1	> 100	
CC(=NNC(=S)Nc1ccccc1)c1cccc(C(C)=NNC(=S)Nc2ccccc2)n1	> 100	
CC(C)c1cc2c(c(O)c1O)[C@@]1(C(=O)O)CCCC(C)(C)[C@@H]1CC2	33.4	
COC1=CC(=O)c2c(c(-c3nc(C)cs3)cn2C)C1=O	4.44	
CCCNc1ncnc2c1ncn2C	> 100	
CCOS(C)(=O)=O	> 100	
C=CCc1cc(-c2nc(=S)[nH][nH]2)ccc1N=NNc1ccc(C(=O)O)cc1	> 100	
CC(C)SC(=S)Sc1c(Cl)c(Cl)nc(Cl)c1Cl	9.57	
O=C(O)CN1CCNCCN(CC(=O)O)CCN(CC(=O)O)CCNCC1	> 100	
CCCCCCCCCCCC[S+](C)C	17.4	
CC(C)(C)[Si](C)(C)OCC1OC(n2ccc(=O)[nH]c2=O)C(O[Si](C)(C)C(C)(C)C)/C1=C/C#N (configuration not stated)	> 100	

system: SW-620 colon; assay: NCI tumour cell line growth inhibition, 48 h

Compound	TGI [µM]
COc1ccc(N2C(=O)CC(=O)N(NC(=O)C(C)Oc3ccccc3C)C2=S)cc1 (configuration not stated)	> 100
O=C1OC(C2Cc3ccc4ccccc4c3C2=O)c2ccccc21 (configuration not stated)	> 100
C/C(=N\N=C1/C(=O)OC(c2ccccc2)=C1C(=O)c1ccccc1)c1ccc([N+](=O)[O-])cc1	> 100
O=S(=O)(O)C(CO)c1ccccc1 (configuration not stated) (tested in a mixture with another compound)	> 100
O=C1c2ccccc2C(=O)N1n1c(Cc2ccc([N+](=O)[O-])cc2)n[nH]c1=O	> 100
Cc1nn(-c2ccccc2)c2c1C(c1cc3ccccc3nc1Cl)NC(=O)N2 (configuration not stated)	36.7
COc1ccc(C2OC(c3ccncc3)=NN2C)cc1F (configuration not stated)	> 100
Cc1cc(/N=C/c2ccc(N(C)C)cc2)n(-c2ccccc2)n1	> 100
O=C(/C=C/c1ccccc1)Oc1ccc(C(=O)/C=C/c2ccccc2)cc1	18.6
COC(=O)C(Cc1ccc2c(c1)CCC2)Cc1ccc2c(c1)CCC2	> 100
C/C(C[n+]1ccccc1)=N\N=C(N)N	> 100
NS(=O)(=O)c1ccc(NC(=S)/N=C/C2=C(O)c3ccccc3C2=O)cc1	> 100
O=C1NC2c3c(I)sc(I)c3C(O)C2O1 (configuration not stated)	> 100
Cc1nc(C)c(C(=O)NNC(=O)C[N+](C)(C)C)cc1C(=O)NNC(=O)C[N+](C)(C)C	> 100
NCCCN1c2ccccc2Sc2ccc(Cl)cc21	> 7
CCOC(=O)c1cccc(N=Nc2nc[nH]c2/C=C/C(=O)OC)c1	> 100
O=C(O)CN1CCN2CCCCCN(CC1)CCN(CC(=O)O)CC2	> 100
